Reference: PubChem BioAssay AID1918942 (Molecular Pharmacology Branch, DTP, NCI, 2023)
Several values for one entry are separate records, joined by “and”; a condition that tells them apart may be missing. Equal entries are not always repeated. One block for each molecule: values may come before it.

System: 743489-274-T-PDC complex spheroid viability
Assay: Anticancer human tumor 743489-274-T-PDC patient-derived renal cell carcinoma cell line growth inhibition
Conditions: for viability, T/C: stronger effect = lower value
Description: Multicellular complex tumor spheroid response to LSD1 Inhibitor Iadademstat in combination with a variety of drugs and investigational agents in selected tumor cell lines
The current study was undertaken to assess response to LSD1 inhibitors in combination with standard-of-care drugs and investigational agents in solid tumor complex spheroid models as well as in the K-562 leukemia. Complex spheroids include a stromal component modeled by human endothelial cells (HUVEC) and fibroblasts modeled by human mesenchymal stem cells (MSCs). The concentration ranges selected for each drug and investigational agent were based upon clinically achievable concentrations if the clinical Cmax of the agent was known.
Compounds. The drugs and investigational agents used in this study are listed on Table 1. All of the agents used, including staurosporine (NSC755774) and gemcitabine (NSC613327), were obtained from the Developmental Therapeutics Program, NCI. FDA-approved anticancer drugs are available from the NCI at http://dtp.nci.nih.gov/branches/dscb/oncology_drugset_explanation.html. Drugs and investigational agents were >95% pure by proton nuclear magnetic resonance (NMR) and liquid chromatography/mass spectrometry (LC/MS). Stock solutions were prepared at 400x in DMSO, stored at -70 degrees C, and diluted in fresh medium prior to their use. The final concentration of DMSO in cell culture wells never exceeded 0.25% (v/v). The FDA-approved anticancer drug set is available from the Developmental Therapeutics Program at https://dtp.cancer.gov/organization/dscb/obtaining/available_plates.htm. All drugs and investigational agents were tested over a range starting from a high concentration at or near the clinical Cmax and decreasing in half-log increments. If the clinical Cmax for an agent had not been determined, the highest concentration tested was 10 microM.
Cell Lines. The patient-derived cancer cell (PDC) lines: 292921-168-R-J2-PDC, K24384-001-R-PDC, and 521955-158-R2-J5-PDC pancreatic carcinomas, 556581-035-R-J1 ovarian carcinoma, 324938-238-R-J1-PDC, 855422-203-R-J1-PDC and 883617-216-R-J1-PDC urothelial bladder carcinomas, 743489-274-T-PDC renal cell carcinoma, 138582-R-J1 Merkel cell tumor, K60290-347-R-J1 and K57222-313-R-J1-PDC glioblastomas, 653999-131-R-J2-PDC, LG0703-F948-PDC, and 349418-098-R-PDC non-small cell lung carcinomas, 885512-296-R-J2-PDC, 171881-019-R-J1-PDC breast carcinomas and 186277-243-T-J2-PDC and 233499-124-R-J2-PDC colon carcinomas were obtained from the NCI Patient-Derived Models Repository (PDMR, https://pdmr.cancer.gov). The established cell lines NCI/ADR-RES (RRID:CVCL_14520 and OVCAR-5 (RRID:CVCL_1628) ovarian carcinomas, 786-O (RRID:CVCL_1051) and A498 (RRID:CVCL_A498) renal cell carcinoma, NCI-H211 (ATCC, cat. CRL-5824; RRID:CVCL_1529), NCI-H196 (ATCC, cat. CRL-5823, RRID:CVCL_1509), SW 1271 (ATCC, cat. CRL-2177, RRID:CVCL_1716) and NCI-H1876 (ATCC, cat. CRL-5902, RRID:CVCL_1503) small cell lung carcinomas, MDA-MB-231 (RRID:CVCL_0062) and MDA-MB-468 (RRID:CVCL_0419)breast carcinomas (10-12). Pooled donor human umbilical vein endothelial cells (HUVEC, Lonza, cat. CC-2519) and human mesenchymal stem cells (hMSC, Lonza, cat. PT-2501) were purchased from Lonza (Walkersville, MD).
Cell Culture. All cells were maintained in an incubator at 37 degrees C and 5% CO2 with 95% humidity. The PDC lines were cultured according to standard operating procedures established by the NCI PDMR (https://pdmr.cancer.gov). Briefly all PDCs were thawed and cultured in Matrigel-coated flasks prepared with a working solution of 1X Ham's F-12 nutrient mix, without supplementation (Invitrogen, Waltham, MA, cat. 11765054), 100 U/mL penicillin-streptomycin (Invitrogen, cat. 15140122), and 2.5% Matrigel (Corning Inc., Corning, NY, cat. 354248) for the first three passages. […]
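Further: spheroids exposed to compounds for 7 days before readout.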
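Wherever viability, T/C is given: 100% = DMSO vehicle control wells.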

Compound: Nc1ncn(C2CC(O)C(CO)O2)c(=O)n1 (stereo unspecified) + NC1CCC(NC2CC2c2ccccc2)CC1
IC50 (curve of first compound, second compound 0.1 µM): > 1000 nM
IC50 (curve of first compound, second compound 0.316 µM): > 1000 nM
IC50 (curve of first compound, second compound 1 µM): > 1000 nM
IC50 (curve of first compound, second compound 3.16 µM): > 1000 nM
IC50 (curve of first compound, second compound 10 µM): > 1000 nM
viability, T/C (second compound 0.1 µM, first compound 0.00316 µM): 107%
viability, T/C (second compound 0.1 µM, first compound 0.01 µM): 113%
viability, T/C (second compound 0.1 µM, first compound 0.0316 µM): 110%
viability, T/C (second compound 0.1 µM, first compound 0.1 µM): 109%
viability, T/C (second compound 0.1 µM, first compound 0.316 µM): 105%
viability, T/C (second compound 0.1 µM, first compound 1 µM): 105%
viability, T/C (second compound 0.316 µM, first compound 0.00316 µM): 122%
viability, T/C (second compound 0.316 µM, first compound 0.01 µM): 119%
viability, T/C (second compound 0.316 µM, first compound 0.0316 µM): 107%
viability, T/C (second compound 0.316 µM, first compound 0.1 µM): 107%
viability, T/C (second compound 0.316 µM, first compound 0.316 µM): 98%
viability, T/C (second compound 0.316 µM, first compound 1 µM): 98.4%
viability, T/C (second compound 1 µM, first compound 0.00316 µM): 107%
viability, T/C (second compound 1 µM, first compound 0.01 µM): 113%
viability, T/C (second compound 1 µM, first compound 0.0316 µM): 114%
viability, T/C (second compound 1 µM, first compound 0.1 µM): 92%
viability, T/C (second compound 1 µM, first compound 0.316 µM): 105%
viability, T/C (second compound 1 µM, first compound 1 µM): 105%
viability, T/C (second compound 3.16 µM, first compound 0.00316 µM): 127%
viability, T/C (second compound 3.16 µM, first compound 0.01 µM): 122%
viability, T/C (second compound 3.16 µM, first compound 0.0316 µM): 108%
viability, T/C (second compound 3.16 µM, first compound 0.1 µM): 95.9%
viability, T/C (second compound 3.16 µM, first compound 0.316 µM): 94%
viability, T/C (second compound 3.16 µM, first compound 1 µM): 97.8%
viability, T/C (second compound 10 µM, first compound 0.00316 µM): 104%
viability, T/C (second compound 10 µM, first compound 0.01 µM): 122%
viability, T/C (second compound 10 µM, first compound 0.0316 µM): 131%
viability, T/C (second compound 10 µM, first compound 0.1 µM): 97.2%
viability, T/C (second compound 10 µM, first compound 0.316 µM): 103%
viability, T/C (second compound 10 µM, first compound 1 µM): 97.3%

IC50 (curve of compound): > 100 nM
Compound: CC[C@@]1(O)C(=O)OCc2c1cc1n(c2=O)Cc2cc3c(CN(C)C)c(O)ccc3nc2-1
viability, T/C (compound 0.000316 µM): 103% and 92.9%
viability, T/C (compound 0.001 µM): 104% and 83.4%
viability, T/C (compound 0.00316 µM): 96.5% and 72.1%
viability, T/C (compound 0.01 µM): 86.4% and 76.7%
viability, T/C (compound 0.0316 µM): 75.1% and 60.3%
viability, T/C (compound 0.1 µM): 63.7% and 57.8%

IC50 (curve of compound): > 300 nM
Compound: Nc1ccn(C2OC(CO)C(O)C2(F)F)c(=O)n1 (stereo unspecified)
viability, T/C (compound 0.000949 µM): 82.7% and 61.8%
viability, T/C (compound 0.003 µM): 85.6% and 60.9%
viability, T/C (compound 0.00949 µM): 73% and 96.8%
viability, T/C (compound 0.03 µM): 73.7% and 58%
viability, T/C (compound 0.0949 µM): 71.6% and 64.1%
viability, T/C (compound 0.3 µM): 65.2% and 63.2%

IC50 (curve of compound): > 1000 nM
Compound: Nc1ncn(C2CC(O)C(CO)O2)c(=O)n1 (stereo unspecified)
viability, T/C (compound 0.00316 µM): 105% and 90.1%
viability, T/C (compound 0.01 µM): 98% and 100%
viability, T/C (compound 0.0316 µM): 81% and 101%
viability, T/C (compound 0.1 µM): 96.1% and 84.5%
viability, T/C (compound 0.316 µM): 96% and 94.3%
viability, T/C (compound 1 µM): 84.3% and 97.7%
